Data published in patent publication US20030068321A1, “Methods of effecting neuronal activity” (Guilford Pharmaceuticals, Inc., priority 2001, published 2003).
Entries after “also recorded” stand apart in the source; their conditions may differ. Peptide text beside a SMILES is read from it.

Test system: chick sensory neurons from dorsal root ganglia
Test: Chick dorsal root ganglion cultures and neurite outgrowth
Format: cell-based
Details: 1 mM concentration; whole DRG explants, forty-eight hours after drug treatment
Experimental: Dorsal root ganglia were dissected from chick embryos of ten-day gestation. Whole ganglion explants were cultured on thin layer Matrigel-coated 12 well plates with Liebovitz L15 plus high glucose media supplemented with 2 mM glutamine and 10% fetal calf serum, and also containing 10 μM cytosine […] (Ara C) at 37° C. in an environment containing 5% CO2. Twenty-four hours later, the DRGs were treated with various concentrations of nerve growth factor, immunophilin ligands or combinations of NFG plus drugs. Forty-eight hours after drug treatment, the ganglia were visualized under phase contrast or Hoffman Modulation contrast with a Zeiss Axiovert inverted microscope. Photomicrographs of the explants were made, and neurite outgrowth was quantitated. Neurites longer that the DRG diameter were counted as positive, with total number of neurites quantitated per each experimental condition. Three to four DRGs are cultured per well, and each treatment was performed in duplicate.
The maximal increase in the number of processes, their length and branching is quite similar at maximally effective […] of the cyclophilin ligands and of NGF (100 ng/ml). With progressively increasing concentrations of the various drugs, one observes a larger number of processes, more extensive branching and a grater length of individual processes.

SMILES	neurotrophic effects (promotion of neurite outgrowth in chick sensory neurons)
CC(=O)N1CCC[C@H]1C(=O)N[C@@H](C)C(=O)N1CCC[C@H]1C(=O)N[C@@H](C)C(N)=O [compound 2] (Ac-PAPA-NH2)	promotion of neurite outgrowth; also recorded: potent neurotrophic effects
CC(=O)N1CCC[C@H]1C(=O)NCC(=O)N1CCC[C@H]1C(=O)N[C@@H](Cc1ccccc1)C(N)=O [compound 1] (Ac-PGPF-NH2)	promotion of neurite outgrowth; also recorded: powerful neurotrophic effects
